Data as given in US7081464B2, “Topical compositions of cyclic amides as immunotherapeutic agents” (Celgene Corporation, priority 1995, dated 2006).

| melting point | SMILES |
| --- | --- |
| 159 to 162 °C | COc1ccc(C(CC(=O)O)N2C(=O)c3ccccc3C2=O)cc1OC1CCCC1 (centres unmarked) [Example 2, 3-Phthalimido-3-(3-cyclopentyloxy-4-methoxyphenyl)propionic Acid] |
| 76 to 78 °C | COC(=O)CC(c1ccc(OC)c(OC2CCCC2)c1)N1C(=O)c2ccccc2C1=O (centres unmarked) [Example 5, Methyl 3-phthalimido-3-(3-cyclopentyloxy-4-methoxyphenyl)propionate] |
